We go through eight compounds from patent US20260226086A1, “COMPOUNDS AND COMPOSITIONS AS STAT3 DEGRADERS AND USES THEREOF” (REGENTS OF THE UNIVERSITY OF MICHIGAN, priority 2023, published 2026).

pIC50: −log10 of the molar value.

One assay addresses T1, STAT3 (Homo sapiens, UniProt P40763).
T1 construct: This cell line is a clone created by using CRISPR-Cas9 to fuse HiBiT to the 3′ end of STAT3 in HeLa cells; host or cells: STAT3-HiBiT KI HeLa cell line (CRISPR-Cas9 knock-in clone)
Nature of the assay: HiBiT assay, STAT3 degradation in STAT3-HiBiT KI HeLa cells. The assay is classed as cell-based. Conditions: 24 h; for DC50: read-out: STAT3 Degradation (HeLa 24 h HiBit) DC50. As to the method:
STAT3 degradation may be determined by HiBiT assay. STAT3-HiBiT KI HeLa cell line, which is a clone created by using CRTISPR-Cas9 to fuse HiBiT to the 3′ end of STAT3 in HeLa cells, may be used for this assay. In a typical procedure, cells seeded at certain amounts of cells (e.g., 20000 cells) per well are incubated with serially diluted compounds for certain period of time (e.g., 24 hours) under certain conditions (e.g., at 37° C. with 5% CO2). At the end of treatment, Nano-Glo HiBiT Lytic Detection reagents is added to the wells and luminescence is acquired on TECAN SPARK plate reader. Untreated cells are used as control. Data points are fit with a four-parameter equation to generate a concentration-response curve. IC50 values are calculated using a nonlinear regression analysis of the mean±SD from triplicate.
STAT3-HiBiT KI HeLa cell line was purchased from Promega. This cell line is a clone created by using CRISPR-Cas9 to fuse HiBiT to the 3′ end of STAT3 in HeLa cells. DMEM medium and FBS were purchased from Gibco/Thermo Fisher Scientific. STAT3 degradation was determined based on quantification of luminescent signal using Nano-Glo HiBiT Lytic Detection System. In a typical procedure, cells seeded at 20000 cells per well in 96-well white plates (Corning) were incubated with serially diluted compounds for 24 hours at 37° C. with 5% CO2. At the end of treatment, Nano-Glo HiBiT Lytic Detection reagents was added to the wells and luminescence was acquired on TECAN SPARK plate reader. Untreated cells were used as control. Data points were fit with a four-parameter equation to generate a concentration-response curve. IC50 values were calculated using a nonlinear regression analysis of the mean±SD from triplicate.

For a further assay, the system named is SUP-M2 cells. Nature of the assay: CellTiter-Glo 2.0 cell viability assay, SUP-M2. The assay is classed as cell-based. Conditions: SUP-M2, 96 h, 4 days. As to the method: For example, cell viability may be determined by CellTiter-Glo 2.0 Cell Viability Assay. In a typical procedure, cells seeded at certain amounts of cells (e.g., 1000 cells) per well are incubated with serially diluted compounds for certain period (e.g., 4 days) under certain conditions (e.g., at 37° C. with 5% CO2). At the end of treatment, CellTiter-Glo 2.0 is added to the wells and luminescence is acquired on TECAN SPARK plate reader. Untreated cells are used as control, Data points are fit with an equation (e.g., a four-parameter equation) to generate a concentration-response curve. IC50 values are calculated using a nonlinear regression analysis of the mean±SD from triplicate.
SU-DHL-1 and SUP-M2 cell viability was determined by CellTiter-Glo 2.0 Cell Viability Assay (Promega). SU-DHL-1 cell line was purchased from ATCC (Manassas, VA) and SUP-M2 (ACC-509) was purchased from DSMZ (Germany). RPMI 1640 medium and fetal bovine serum (FBS) were purchased from Gibco/Thermo Fisher Scientific. In a typical procedure, cells seeded at 1000 cells per well in 384-well white plates (Corning) were incubated with serially diluted compounds for 4 days at 37° C. with 5% C02. At the end of treatment, CellTiter-Glo 2.0 was added to the wells and luminescence was acquired on TECAN SPARK plate reader. Untreated cells were used as control. Data points were fit with a four-parameter equation to generate a concentration-response curve. IC50 values were calculated using a nonlinear regression analysis of the mean±SD from triplicate.
On the technique in general: In ATP-based viability assays light output follows the ATP content of the culture.

T1 sequence (P40763 whole entry): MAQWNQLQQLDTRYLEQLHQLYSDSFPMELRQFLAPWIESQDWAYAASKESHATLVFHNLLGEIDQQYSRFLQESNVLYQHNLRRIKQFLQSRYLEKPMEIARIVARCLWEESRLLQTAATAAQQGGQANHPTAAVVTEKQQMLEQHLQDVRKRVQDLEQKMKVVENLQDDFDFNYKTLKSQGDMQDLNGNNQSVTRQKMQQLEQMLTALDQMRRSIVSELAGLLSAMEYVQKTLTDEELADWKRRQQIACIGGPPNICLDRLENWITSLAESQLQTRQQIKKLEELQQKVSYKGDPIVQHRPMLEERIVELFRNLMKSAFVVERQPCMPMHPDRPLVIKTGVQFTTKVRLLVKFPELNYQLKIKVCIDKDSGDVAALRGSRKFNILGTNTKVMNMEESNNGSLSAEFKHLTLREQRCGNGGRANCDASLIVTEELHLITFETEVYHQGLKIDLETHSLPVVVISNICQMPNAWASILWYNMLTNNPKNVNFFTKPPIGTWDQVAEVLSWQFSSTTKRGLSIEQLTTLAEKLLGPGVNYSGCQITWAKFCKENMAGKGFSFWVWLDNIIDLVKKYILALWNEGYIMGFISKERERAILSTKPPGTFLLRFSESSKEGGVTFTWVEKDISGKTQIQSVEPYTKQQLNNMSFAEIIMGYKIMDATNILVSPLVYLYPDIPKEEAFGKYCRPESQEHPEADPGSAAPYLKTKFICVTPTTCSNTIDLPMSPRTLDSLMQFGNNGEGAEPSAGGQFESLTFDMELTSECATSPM

For `CCS(=O)(=O)c1ccc(CNC(=O)[C@H](CCC(N)=O)NC(=O)[C@@H]2CC[C@@H]3CCN(C(=O)CCCCc4cn([C@@H](C(=O)N5C[C@H](O)C[C@H]5C(=O)N[C@H](C)c5ccc(-c6scnc6C)cc5)C5CCN(C)CC5)nn4)C[C@H](NC(=O)c4cc5cc(C(=O)P(=O)(O)O)ccc5[nH]4)C(=O)N32)cc1` [Compound 21, (2-(((5S,8S,10aR)-8-(((S)-5-amino-1-((4-(ethylsulfonyl)benzyl)amino)-1,5-dioxopentan-2-yl)carbamoyl)-3-(5-(1-((R)-2-((2S,4R)-4-hydroxy-2-(((R)-1-(4-(4-methylthiazol-5-yl)phenyl)ethyl)carbamoyl)pyrrolidin-1-yl)-1-(1-methylpiperidin-4-yl)-2-oxoethyl)-1H-1,2,3-triazol-4-yl)pentanoyl)-6-oxodecahydropyrrolo[1,2-a][1,5]diazocin-5-yl)carbamoyl)-1H-indole-5-carbonyl)phosphonic acid], at STAT3, the Dmax (commonly the largest share of the target that was removed) at 1 µM was greater than 80% and the DC50 – broadly, the midpoint of the concentration-degradation curve – was less than 10 nM. Moreover, the pIC50 – broadly, the negative decadic logarithm of the IC50, by convention in mol/L – with SUP-M2 cells is greater than 8.00.

As for `CCS(=O)(=O)c1ccc(CNC(=O)[C@H](CCC(N)=O)NC(=O)[C@@H]2CC[C@@H]3CCN(C(=O)CCCCc4cn([C@@H](C(=O)N5C[C@H](O)C[C@H]5C(=O)N[C@H](C)c5ccc(-c6scnc6C)cc5)C5CCN(C(C)=O)CC5)nn4)C[C@H](NC(=O)c4cc5cc(C(=O)P(=O)(O)O)ccc5[nH]4)C(=O)N32)cc1` [Compound 22, (2-(((5S,8S,10aR)-3-(5-(1-((R)-1-(1-acetylpiperidin-4-yl)-2-((2S,4R)-4-hydroxy-2-(((R)-1-(4-(4-methylthiazol-5-yl)phenyl)ethyl)carbamoyl)pyrrolidin-1-yl)-2-oxoethyl)-1H-1,2,3-triazol-4-yl)pentanoyl)-8-(((S)-5-amino-1-((4-(ethylsulfonyl)benzyl)amino)-1,5-dioxopentan-2-yl)carbamoyl)-6-oxodecahydropyrrolo[1,2-a][1,5]diazocin-5-yl)carbamoyl)-1H-indole-5-carbonyl)phosphonic acid], at STAT3, the Dmax at 1 µM was greater than 80% and the DC50 was less than 10 nM. For the same compound, the pIC50 in the assay with SUP-M2 cells was greater than 8.00.

Take `CCS(=O)(=O)c1ccc(CNC(=O)[C@H](CCC(N)=O)NC(=O)[C@@H]2CC[C@@H]3CCN(C(=O)CCCCCc4cn([C@H](C(=O)N5C[C@H](O)C[C@H]5C(=O)N[C@@H](COCCOCCOC)c5ccc(-c6scnc6C)cc5)C(C)(C)C)nn4)C[C@H](NC(=O)c4cc5cc(C(=O)P(=O)(O)O)ccc5[nH]4)C(=O)N32)cc1` [Compound 26]: at STAT3, the Dmax at 1 µM is greater than 80% and the DC50 was less than 10 nM.

`COCCOCCOC[C@H](NC(=O)[C@@H]1C[C@@H](O)CN1C(=O)[C@@H](n1cc(CCCc2cccc(OC[C@H](CCC(N)=O)NC(=O)[C@@H]3CC[C@@H]4CCN(C(C)=O)C[C@H](NC(=O)c5cc6cc(C(=O)P(=O)(O)O)ccc6[nH]5)C(=O)N43)c2Cl)nn1)C(C)(C)C)c1ccc(-c2scnc2C)cc1` [Compound 27, (2-(((5S,8S,10aR)-3-acetyl-8-(((S)-5-amino-1-(2-chloro-3-(3-(1-((S)-1-((2S,4R)-4-hydroxy-2-(((R)-2-(2-(2-methoxyethoxy)ethoxy)-1-(4-(4-methylthiazol-5-yl)phenyl)ethyl)carbamoyl)pyrrolidin-1-yl)-3,3-dimethyl-1-oxobutan-2-yl)-1H-1,2,3-triazol-4-yl)propyl)phenoxy)-5-oxopentan-2-yl)carbamoyl)-6-oxodecahydropyrrolo[1,2-a][1,5]diazocin-5-yl)carbamoyl)-1H-indole-5-carbonyl)phosphonic acid]: at STAT3, the maximal degradation (Dmax) at 1 µM was greater than 80% and the half-maximal degradation concentration (DC50) is less than 10 nM.

`CCS(=O)(=O)c1ccc(CNC(=O)[C@H](CCC(N)=O)NC(=O)[C@@H]2CC[C@@H]3CCN(C(=O)CCCCCc4cn([C@@H](C(=O)N5C[C@@H](O)C[C@@H]5C(=O)N[C@@H](C)c5ccc(-c6scnc6C)cc5)C5CCCCC5)nn4)C[C@H](NC(=O)c4cc5cc(C(=O)P(=O)(O)O)ccc5[nH]4)C(=O)N32)cc1` [Compound 28, (2-(((5S,8S,10aR)-8-(((S)-5-amino-1-((4-(ethylsulfonyl)benzyl)amino)-1,5-dioxopentan-2-yl)carbamoyl)-3-(6-(1-((R)-1-cyclohexyl-2-((2R,4S)-4-hydroxy-2-(((S)-1-(4-(4-methylthiazol-5-yl)phenyl)ethyl)carbamoyl)pyrrolidin-1-yl)-2-oxoethyl)-1H-1,2,3-triazol-4-yl)hexanoyl)-6-oxodecahydro-pyrrolo[1,2-a][1,5]diazocin-5-yl)carbamoyl)-1H-indole-5-carbonyl)phosphonic acid]: on STAT3, the Dmax at 1 µM is greater than 80% and the DC50 is less than 10 nM.

Take `CCS(=O)(=O)c1ccc(CNC(=O)[C@H](CCC(N)=O)NC(=O)[C@@H]2CC[C@@H]3CCN(C(=O)CCCCCc4cn([C@@H](C(=O)N5C[C@@H](O)C[C@@H]5C(=O)N[C@@H](C)c5ccc(-c6scnc6C)cc5)C5CCOCC5)nn4)C[C@H](NC(=O)c4cc5cc(C(=O)P(=O)(O)O)ccc5[nH]4)C(=O)N32)cc1` [Compound 29, (2-(((5S,8S,10aR)-8-(((S)-5-amino-1-((4-(ethylsulfonyl)benzyl)amino)-1,5-dioxopentan-2-yl)carbamoyl)-3-(6-(1-((R)-2-((2R,4S)-4-hydroxy-2-(((S)-1-(4-(4-methylthiazol-5-yl)phenyl)ethyl)carbamoyl)pyrrolidin-1-yl)-2-oxo-1-(tetrahydro-2H-pyran-4-yl)ethyl)-1H-1,2,3-triazol-4-yl)hexanoyl)-6-oxodecahydropyrrolo[1,2-a][1,5]diazocin-5-yl)carbamoyl)-1H-indole-5-carbonyl)phosphonic acid]: on STAT3, the Dmax at 1 µM is greater than 80% and the DC50 is less than 10 nM.

As for `CCS(=O)(=O)c1ccc(OC[C@H](CCC(N)=O)NC(=O)[C@@H]2CC[C@@H]3CCN(C(=O)CCCCc4cn([C@H](C(=O)N5C[C@H](O)C[C@H]5C(=O)N[C@@H](C)c5ccc(-c6scnc6C)cc5)C(C)(C)C)nn4)C[C@H](NC(=O)c4cc5cc(C(=O)P(=O)(O)O)ccc5[nH]4)C(=O)N32)cc1` [Compound 34, (2-(((5S,8S,10aR)-8-(((S)-5-amino-1-(4-(ethylsulfonyl)phenoxy)-5-oxopentan-2-yl)carbamoyl)-3-(5-(1-((S)-1-((2S,4R)-4-hydroxy-2-(((S)-1-(4-(4-methylthiazol-5-yl)phenyl)ethyl)carbamoyl)pyrrolidin-1-yl)-3,3-dimethyl-1-oxobutan-2-yl)-1H-1,2,3-triazol-4-yl)pentanoyl)-6-oxodecahydropyrrolo[1,2-a][1,5]diazocin-5-yl)carbamoyl)-1H-indole-5-carbonyl)phosphonic acid], on STAT3, the Dmax at 1 µM lay in the range of 60 to 80% and the 50% degradation concentration (DC50) fell in the range of 10 to 100 nM.

With `CC(=O)N1CC[C@H]2CC[C@@H](C(=O)N[C@@H](CCC(N)=O)COc3cccc(CCCc4cn([C@H](C(=O)N5C[C@H](O)C[C@H]5C(=O)N[C@@H](C)c5ccc(-c6scnc6C)cc5)C(C)(C)C)nn4)c3Cl)N2C(=O)[C@@H](NC(=O)c2cc3cc(C(F)(F)P(=O)(O)O)ccc3s2)C1` [Compound 44], at STAT3, the Dmax at 1 µM is greater than 80% and the DC50 is less than 10 nM.
